Results taken from PubChem BioAssay (NCI).
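Values below derive from 48-hour exposures of cells grown in 96-well plates, with endpoints linearly interpolated between the two concentrations bracketing the appropriate inhibition level. GI50: concentration for 50% inhibition of growth. TGI is the concentration that stops growth completely.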

Key:
Assay in all cases: DTP human tumour cell line panel, 48 h
SR leukemia = system: SR leukemia
OVCAR-3 ovarian = system: OVCAR-3 ovarian
EKVX NSCLC = system: EKVX NSCLC
UACC-62 melanoma = system: UACC-62 melanoma
K-562 leukemia = system: K-562 leukemia
HS 578T breast = system: HS 578T breast
OVCAR-5 ovarian = system: OVCAR-5 ovarian
CAKI-1 renal = system: CAKI-1 renal
UACC-257 melanoma = system: UACC-257 melanoma
IGROV1 ovarian = system: IGROV1 ovarian

SMILES	GI50 (SR leukemia)	TGI (SR leukemia)	GI50 (OVCAR-3 ovarian)	TGI (OVCAR-3 ovarian)	GI50 (EKVX NSCLC)	TGI (EKVX NSCLC)	GI50 (UACC-62 melanoma)	TGI (UACC-62 melanoma)	GI50 (K-562 leukemia)	TGI (K-562 leukemia)	GI50 (HS 578T breast)	TGI (HS 578T breast)	GI50 (OVCAR-5 ovarian)	TGI (OVCAR-5 ovarian)	GI50 (CAKI-1 renal)	TGI (CAKI-1 renal)	GI50 (UACC-257 melanoma)	TGI (UACC-257 melanoma)	GI50 (IGROV1 ovarian)	TGI (IGROV1 ovarian)
CC(=O)Nc1ccc(Sc2ccc([N+](=O)[O-])o2)cc1	2.8 µM	12.6 µM	0.664 µM	1.95 µM	4.46 µM	25.2 µM	1.83 µM	3.84 µM	2.22 µM	> 30.8 µM	3.87 µM	24.9 µM	2.34 µM	5.9 µM	1.41 µM	3.06 µM	1.61 µM	3.52 µM	1.27 µM	4.27 µM
NS(=O)(=O)c1cc2c(cc1Cl)NC(Cc1ccccc1)NS2(=O)=O (stereo not given)	–	> 100 µM	–	> 100 µM	–	> 100 µM	–	> 100 µM	–	> 100 µM	–	> 100 µM	–	> 100 µM	–	> 100 µM	–	> 100 µM	–	> 100 µM
O=C1OCC(c2cccs2)=C1Cl	> 100 µM	> 100 µM	44.8 µM	> 100 µM	40.5 µM	> 100 µM	19.5 µM	> 100 µM	> 100 µM	> 100 µM	39 µM	> 100 µM	76.7 µM	> 100 µM	> 100 µM	> 100 µM	41 µM	> 100 µM	> 100 µM	> 100 µM
O=P(O)(O)c1ccccc1 (tested in a mixture with another compound)	–	> 100 µM	–	> 100 µM	–	> 100 µM	–	> 100 µM	–	> 100 µM	–	> 100 µM	–	> 100 µM	–	> 100 µM	–	> 100 µM	–	> 100 µM
CC(C)(C)c1nc2c(o1)C(=O)c1ccccc1C2=O	–	45 µM	–	2.03 µM	–	6.51 µM	–	1.58 µM	–	13.8 µM	–	4.26 µM	–	4.85 µM	–	6.77 µM	–	1.43 µM	–	6.04 µM
COc1ccc(/C(Cl)=C(\C=O)c2ccc([N+](=O)[O-])cc2)cc1OC	–	83.3 µM	–	38 µM	–	> 59.7 µM	–	16.2 µM	–	> 93.3 µM	–	> 100 µM	–	> 100 µM	–	26.4 µM	–	29.7 µM	–	38.6 µM
CC(C)[C@@]12C[C@@H](OC(=O)[C@H]3CO3)[C@@](C)(O1)[C@@H]1CC[C@@H](C)[C@H]1[C@@H]2OC(=O)/C=C/c1ccccc1	24.7 µM	> 100 µM	12.3 µM	30.8 µM	16.3 µM	> 75.6 µM	13.6 µM	35.7 µM	18.5 µM	> 100 µM	0.0736 µM	0.501 µM	20.5 µM	68 µM	6.83 µM	> 100 µM	19.5 µM	50.6 µM	23.7 µM	> 83.4 µM
COc1cccc(C2C(C#N)=C(N)Oc3cc(N)ccc32)c1 (stereo not given)	0.3 µM	> 100 µM	0.337 µM	1.03 µM	0.854 µM	> 100 µM	0.368 µM	> 100 µM	0.396 µM	> 100 µM	0.314 µM	> 100 µM	1.43 µM	> 100 µM	0.47 µM	> 100 µM	0.319 µM	> 100 µM	0.854 µM	> 100 µM
COc1ccc(Nn2c(SCC(=O)Nc3nc(-c4ccc(Cl)cc4)cs3)nc(C)c2C)cc1	7.02 µM	> 100 µM	3.13 µM	24.2 µM	1.92 µM	> 100 µM	3.62 µM	> 100 µM	1.58 µM	> 100 µM	11.8 µM	> 100 µM	> 100 µM	> 100 µM	2.16 µM	> 100 µM	2.97 µM	41.1 µM	5.67 µM	> 100 µM
CCNCC(=O)O[C@]1(CC)C(=O)OCc2c1cc1n(c2=O)Cc2cc3ccccc3nc2-1	–	0.0327 µM	–	15.9 µM	–	> 100 µM	–	0.677 µM	–	> 100 µM	–	> 100 µM	–	13.2 µM	–	4.65 µM	–	12.2 µM	–	24.5 µM
COc1cc(NCCCCN=C(N)NC(N)=NC(C)C)c2ncccc2c1	7.01 µM	32.6 µM	0.311 µM	0.897 µM	5.83 µM	> 62 µM	10.3 µM	24.3 µM	3.65 µM	25.8 µM	5.51 µM	27.1 µM	17.3 µM	> 88.3 µM	> 100 µM	> 100 µM	3.26 µM	10.5 µM	0.439 µM	6.32 µM
O=[N+]([O-])c1ccc(-c2nc(-c3ccccc3)c(-c3ccccc3)n2-c2ccccc2)cc1	6.2 µM	> 100 µM	2.43 µM	6.67 µM	2.93 µM	> 26.6 µM	2.18 µM	8.53 µM	3.24 µM	95.9 µM	2.74 µM	14.4 µM	4.7 µM	28.7 µM	3.04 µM	> 28.4 µM	2.39 µM	5.87 µM	2.42 µM	7.28 µM
C1CCN(CCC2CCCCN2)CC1 (stereo not given)	–	> 100 µM	–	> 100 µM	–	> 100 µM	–	> 100 µM	–	> 100 µM	–	> 100 µM	–	> 100 µM	–	> 100 µM	–	> 100 µM	–	> 100 µM
COc1ccc(NC(=O)n2nc(N)c3ccccc32)cc1OC	29.3 µM	> 100 µM	92 µM	> 100 µM	54.1 µM	> 100 µM	52.3 µM	> 100 µM	41.2 µM	> 100 µM	43.3 µM	> 100 µM	45.5 µM	> 100 µM	> 100 µM	> 100 µM	73.6 µM	> 100 µM	18.1 µM	84 µM
